Data from patent publication US20260256716A1, “COMPOSITIONS AND METHODS OF USE THEREOF” (Board of Supervisors of Louisiana State University and …, priority 2023, published 2026).

Tests used:
Type in all cases: cell-based, human
ARPE-19 cells [1] = assay: Hyperglycemia induced SA-β-Gal cellular senescence in ARPE-19 cells (HPLM); details: 10 nM; HPLM with 5, 10, 20 or 30 mM glucose, 72 hours
Method: Consistent with Retinal Deterioration by Glucose-Induced Cellular Senescence in the Diabetic Population, Hyperglycemic conditions induce increased disease promoting Cellular Senescence that is abrogated by low nM concentrations of the Representative 5-HT2A Receptor Agonist, R-DOI Returning to Base-line Homeostatic Levels. ARPE-19 cells in physiologically relevant media (HPLM; 7% FCS) were seeded overnight prior to being replaced with starvation media (HPLM 0.5% FCS) containing 10 nM R-DOI. After overnight incubation in starvation media, cells were swapped to media containing diabetic blood glucose levels (HPLM 7% FCS containing 5 mM, 10 mM, 20 mM, or 30 mM glucose) for 72-hours. After the 72-hour incubation, cells were fixed and stained for SA-β-Gal for 6-hours. Cells nuclei were then stained with DAPI for total-cell enumeration. SA-β-Gal positive cells, and total cells per frame, were quantified by microscopy. Pathological/diabetic glucose concentrations induce cellular senescence. 5-HT2A receptor agonism alleviates glucose-induced senescence at diabetic blood glucose levels. […]
Effects of specific phenethylamine 5-HT2A receptor agonists on reduction of Hyperglycemia induced Disease Promoting Cellular Senescence: Inhibition of Cell Senescence and Disease Processes are Drug and Dose Dependent. […] SA-3-Gal positive cells, and total cells per frame, were quantified by microscopy. For each 5-HT2A agonist assessed, the % of senescent cells is expressed relative to the hyperglycemic control. […]
Inhibition of Cell Senescence and Disease Processes are Drug and Dose Dependent. […] SA-β-Gal positive cells, and total cells per frame, were quantified by microscopy. For each 5-HT2A agonist assessed, the % of senescent cells is expressed relative to the hyperglycemic control. […]

ARPE-19 cells [2] = assay: ATP luciferase assay in ARPE-19 cells
ARPE cells [3] = assay: Blue light induced mitochondrial fragmentation in ARPE cells (mitotracker green); details: 100 nM; 48 hours; hyperglycemic conditions; blue light 400 nm
Method: ARPE cells grown under hyperglycemic conditions were plated and mock treated or treated with R-DOI or 2C-iBu at 100 nM. 48 hours post treatment, mitochondria in live cells were visualized by staining mitochondria with mitotracker green (green). Once stained, live ARPE cells were exposed to focused blue light at 400 nm and the ability of drugs to protect against blue light damage-induced mitochondrial fragmentation was assessed.

ARPE cells [4] = assay: Blue light induced mitochondrial oxidative stress in ARPE cells (Mitosox); details: 0.001 nM; 24 hours; hyperglycemic conditions; blue light 400 nm 12 seconds
Method: Representative 5-HT2A Receptor Agonist, R-DOI Inhibits Blue Light Induced Mitochondrial-Mediated Oxidative Stress at low sub-nanomolar concentrations thereby reversing adverse processes that are associated with retinal exposure to blue light. ARPE cells grown under hyperglycemic conditions were plated and mock treated or treated with R-DOI at 0.001 nM. 24 hours post treatment, live ARPE cells were labeled with the mitochondrial oxidative stress indicator dye Mitosox that becomes fluorescent red under mitochondria-induced oxidative stress conditions. Once stained, live ARPE cells were exposed to focused blue light at 400 nm for 12 seconds and the ability of drugs to protect against blue light damage-induced mitochondrial oxidative stress induction was assessed. In the absence of 5HT2A agonists, there was a clear increase in red fluorescence upon blue light exposure.

COc1cc(C[C@@H](C)N)c(OC)cc1I (single isomer, unassigned) [R-DOI, R enantiomer 2,5-Dimethoxy-4-iodoamphetamine]
hyperglycemia induced cellular senescence (SA-β-Gal positive cells) (ARPE-19 cells [1]): abrogated
ATP levels relative to Mock treated ARPE-19 cells (ARPE-19 cells [2]; 10 fold dilutions 100 nM to 0.1 nM): Increase Mitochondrial Function And ATP Production
production of ATP (ARPE-19 cells [2]; ARPE WT cells, 24 h after administration): enhanced production of ATP
blue light induced mitochondrial fragmentation/damage (ARPE cells [3]): Inhibit Blue Light and Oxidative Stress Induced Mitochondrial Fragmentation/Damage
blue light induced mitochondrial oxidative stress (ARPE cells [4]): abrogated mitochondrial oxidative stress responses
